# Measured values: patent publication US20120152149A1, “USE OF 1,3-DIOLS AS BIOCIDES” (BASF SE, priority 2009, published 2012)
# How the values were obtained:
# Format in all cases: cell-based
# P. aeruginosa ATCC 15442 = assay: Preservation stress test, example formulation 1 (standard emulsion O/W); settings: 1% active substance
# Summary of the method: (§1)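 O/W emulsion containing 1% diol (water as placebo), inoculated individually or as mixed culture at 10^5-10^6 CFU/g and held 28 d at 20-25° C. Surviving counts at 0, 2, 7, 14 and 28 d after dilution in neutralising phosphate buffer pH 7.4 with Tween 80/lecithin; expressed as log reduction from initial count.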
# S. aureus ATCC 6538 = assay: as above; settings: 1% active substance
# Summary of the method: as §1
# E. coli ATCC 10536 = assay: as above; settings: 1% active substance
# Summary of the method: as §1
# A. niger ATCC 6275 = assay: Suspension test EN 1275, fungicidal activity against molds; settings: 1% active substance in the test
# [1] = system: E. coli ATCC 10536, S. aureus ATCC 6538, P. aeruginosa ATCC 15442; assay: Preservation stress test, example formulation 1 (standard emulsion O/W), bacteria together; settings: 1% active substance, P. aeruginosa (one time series)
# Method: Preservation stress tests (PSTs) were carried out in order to determine the preserving activity of the diols. In the preservation stress test, this is simulated through artificial loadings with microorganisms. These can either be inoculated as mixed population or individually in mixtures independent of one another. The inoculated product samples are incubated under defined conditions and, after defined times, samples are taken in order to determine the germ loading. In the case of adequate preservation, the number of microorganisms should, depending on the type, either decrease or remain constant in order to satisfy the requirements specified, e.g. in Ph. Eur. 6.0. To investigate the preserving effect of the diols, application-typical amounts of the diols were incorporated into example formulations. […] [table] These example formulations were used to prepare various mixtures which each comprised 1% active substance or comprised water instead of the active substance as placebo mixtures. These mixtures were in each case inoculated with the test germs such that a germ loading of 10^5-10^6 CFU/g was present in the test mixture. The bacteria were either used individually for the inoculation or as a mixed culture. To determine the starting germ count, immediately after inoculation, an aliquot was taken, diluted in dilution medium (phosphate buffer, 0.07 molar pH 7.4 (+/−0.2), with 1% Tween 80+0.3% soya lecithin), and the surviving germ count was determined in the dilution stages 10^−1 to 10^−3. The inoculated product samples then incubated for a total of 28 d at 20-25° C. After 2 d, 7 d, 14 d and after 28 d, aliquots were taken and diluted in dilution medium (phosphate buffer, 0.07 molar pH 7.4 (+/−0.2), with 1% Tween 80+0.3% soya lecithin). The surviving germ counts were determined in the dilution stages 10^−1 to 10^−4. The reference point taken for determining the reduction in germ count was the respective initial value of the sample. The results were given as logarithmic reductions.
# C. albicans ATCC 10231 = assay: Suspension test EN 1275, activity against yeasts; settings: 1000 ppm of active substance
# Method: The fungicidal activity was determined in accordance with European standard EN 1275 and compared with the activities of customary commercial products, with only slight modifications having been carried out. The substances of the formula (1) were dissolved in water or ethanol to give a 1% strength stock solution. To determine the microbicidal activities of the diols against yeasts, the test mixtures were selected such that 1000 ppm of active substance was present in an aqueous solution. For the results shown in table 2, the test mixtures were inoculated with the following yeast and mold strains such that the stated germ densities were present in the test mixtures. C. albicans ATCC 10231 1−2×10^6 CFU/ml The test mixtures were incubated at room temperature (22° C.+/−2° C.). After defined contact times, aliquots of 1 ml were taken in order to determine the surviving germ count. For the deactivation of the microbicidal activity of the diols, the aliquots were diluted in 1:10 dilution steps in a solution of Sabouraud medium with 10% Tween, 3% lecithin, 0.1% histidines and 0.5% sodium thiosulfate and the 10^−2, 10^−3 and 10^−4 dilution stages were used for determining the surviving germ count. For this, corresponding aliquots were plated out on Sabouraud medium with inhibitor and incubated at 30° C. for 2 d. The ascertained surviving germ counts were in each case compared with a mixture containing water (water control) by determining the logarithmic reduction in the surviving germ counts based on the water control.
SMILES,Microbicidal activity given as logarithmic reduction in germ count (P. aeruginosa ATCC 15442; 48 h),Microbicidal activity given as logarithmic reduction in germ count (P. aeruginosa ATCC 15442; 7 d),Microbicidal activity given as logarithmic reduction in germ count (P. aeruginosa ATCC 15442; 14 d),Microbicidal activity given as logarithmic reduction in germ count (S. aureus ATCC 6538; 48 h),Microbicidal activity given as logarithmic reduction in germ count (S. aureus ATCC 6538; 7 d),Microbicidal activity given as logarithmic reduction in germ count (S. aureus ATCC 6538; 14 d),Microbicidal activity given as logarithmic reduction in germ count (E. coli ATCC 10536; 48 h),Microbicidal activity given as logarithmic reduction in germ count (E. coli ATCC 10536; 7 d),Microbicidal activity given as logarithmic reduction in germ count (E. coli ATCC 10536; 14 d),Microbicidal activity given as logarithmic reduction in germ count (A. niger ATCC 6275; contact time 24 h),Microbicidal activity given as logarithmic reduction in germ count (A. niger ATCC 6275; contact time 7 d),Microbicidal activity given as logarithmic reduction in germ count ([1]; 48 h),Microbicidal activity given as logarithmic reduction in germ count ([1]; 7 d),Microbicidal activity given as logarithmic reduction in germ count ([1]; 14 d),Microbicidal activity given as logarithmic reduction in germ count ([1]; 28 d),Microbicidal activity given as logarithmic reduction in germ count (C. albicans ATCC 10231; contact time 5 min),Microbicidal activity given as logarithmic reduction in germ count (C. albicans ATCC 10231; contact time 30 min),Microbicidal activity given as logarithmic reduction in germ count (C. albicans ATCC 10231; contact time 24 h)
"CCCC(O)CO (centres unmarked) [1,2-Pentanediol, 1,2-pentanediol, reference compound]",0 log. Red.,≧3 log. Red.,≧3 log. Red.,0 log. Red.,0 log. Red.,0 log. Red.,0 log. Red.,0 log. Red.,0 log. Red.,<1 log. red.,<1 log. red.,,,,,,,
"OCC1(CO)CC2CCC1C2 (centres unmarked) [2,2-DMNB, 2,2-dimethylolnorbornane]",,,,,,,,,,,,≧3 log. Red.,5 log. Red.,5 log. Red.,5 log. Red.,,,
"OCC1(CO)CCCC1 [DMCP, 1,1-dimethylolcyclopentane]",,,,,,,,,,,,3 log. Red.,5 log. Red.,5 log. Red.,5 log. Red.,,,
"CC(C)C(C)(CO)CO [IMPD, 2-isopropyl-2-methylpropane-1,3-diol]",,,,,,,,,,,,≧3 log. Red.,5 log. Red.,5 log. Red.,5 log. Red.,,,
"CCCCCCCCC(C)(CO)CO [OMPD, 2-octyl-2-methylpropane-1,3-diol]",,,,,,,,,,<1 log. red.,2.6 log. red.,≧3 log. Red.,5 log. Red.,5 log. Red.,5 log. Red.,>4 log. red.,>4 log. red.,>4 log. red.
"CCCCCC(CO)(CO)CCC [PPPD, 2-pentyl-2-propylpropane-1,3-diol]",,,,,,,,,,2.9 log. red.,>4 log. red.,≧3 log. Red.,5 log. Red.,5 log. Red.,5 log. Red.,1.7 log. red.,>5 log. red.,>5 log. red.
